This note sets out measurements from patent publication US20090233928A1, “IMIDAZOLO-5-YL-2-ANILO-PYRIMIDINES AS AGENTS FOR THE INHIBITION OF CELL PROLIFERATION” (priority 2005, published 2009).

The experiment deals with T1, CDK2/Cyclin E (Homo sapiens, UniProt P24941).
T1 construct: The open reading frames of CDK2 and Cyclin E were isolated; made in house; host or cells: Sf21 (Spodoptera frugiperda) insect cells, baculovirus co-infection; the GST-Rb substrate was made in E. coli BL21 (DE3) pLysS
Kind of experiment: in vitro kinase assay (Scintillation Proximity Assay), CDK2/Cyclin E, GST-Rb substrate. Particulars: in-vitro SPA kinase assay, read-out: CDK2 inhibitory activity IC50. Format: biochemical. As to the method: The compounds were tested in an in vitro kinase assay in 96 well format using Scintillation Proximity Assay (SPA—obtained from Amersham) for measuring incorporation of [γ-33-P]-Adenosine Triphosphate into a test substrate (GST-Retinoblastoma protein; GST-Rb). In each well was placed the compound to be tested (diluted in DMSO and water to correct concentrations) and in control wells either roscovitine as an inhibitor control or DMSO as a positive control. […]
The plates were sealed with Topseal-S plate sealers, left for two hours then spun at 2500 rpm, 1124×g., for 5 minutes. The plates were read on a Topcount for 30 seconds per well. […]
E. coli paste was resuspended in 10 ml/g of NETN buffer (50 mM Tris pH 7.5, 120 mM NaCl, 1 mM EDTA, 0.5% v/v NP-40, 1 mM PMSF, 1 ug/ml leupeptin, 1 ug/ml aprotinin and 1 ug/ml pepstatin) and sonicated for 2×45 seconds per 100 ml homogenate. […] The final product was analysed by Sodium Dodeca Sulfate (SDS) PAGE (Polyacrylamide gel) using 8-16% Tris-Glycine gels (Novex, San Diego, USA).
The open reading frames of CDK2 and Cyclin E were isolated by reverse transcriptase-PCR using HeLa cell and activated T cell mRNA as a template and cloned into the insect expression vector pVL1393 (obtained from Invitrogen 1995 catalogue number: V1392-20). […]

What is called IC50 is the point on the concentration scale where inhibition reaches its midpoint.

On to `Cc1ncc(-c2ccnc(Nc3ccc(N4CCOCC4)nc3)n2)n1C(C)C` [Example 22, 4-(1-Isopropyl-2-methyl-1H-imidazol-5-yl)-N-(6-morpholin-4-ylpyridin-3-yl)pyrimidin-2-amine], for which the half-inhibitory concentration (IC50) was 49 nM.
